From ChEMBL document CHEMBL1130640, “Lactate cannot substitute for alanine in d4T-based anti-HIV nucleotide prodrugs--despite efficient esterase-mediated hydrolysis” (Bioorg Med Chem Lett, 1998)

Columns and labels:
Conditions in all cases: Homo sapiens
[1] = test system: CCRF-CEM; assay: Compound was tested for cytostatic activity in CEM cell line.; type: functional
[2] = test system: CEM-TK(-); assay: Compound was tested for anti-HIV-2 activity in CEM/TK- cell line.; type: functional, cell-based
[3] = test system: CCRF-CEM; assay: Compound was tested for anti-HIV-1 activity in CEM/0 cell line.; type: functional, cell-based
[4] = test system: CCRF-CEM; assay: Compound was tested for anti-HIV-2 activity in CEM/0 cell line.; type: functional, cell-based
[5] = test system: CCRF-CEM; assay: Compound was tested for cytostatic activity in CEM cell line; type: functional
[6] = test system: CCRF-CEM; assay: Compound was tested for anti-HIV-1 activity in CEM/0 cell line; type: functional, cell-based
[7] = test system: CEM-TK(-); assay: Compound was tested for anti-HIV-2 activity in CEM/TK- cell line; type: functional, cell-based
[8] = test system: CCRF-CEM; assay: Compound was tested for anti-HIV-2 activity in CEM/0 cell line; type: functional, cell-based

SMILES: COC(=O)CNP(=O)(OCC1C=CC(n2cc(C)c(=O)[nH]c2=O)O1)Oc1ccccc1 (centres undefined)
- CC50 [1]: ≥ 250 µM
- EC50 [2]: 7 µM

SMILES: COC(=O)C(C)OP(=O)(OCC1C=CC(n2cc(C)c(=O)[nH]c2=O)O1)Oc1ccccc1 (centres undefined)
- CC50 [1]: ≥ 250 µM
- EC50 [3]: 4 µM
- EC50 [2]: > 250 µM
- EC50 [4]: 5 µM

SMILES: CCOC(=O)COP(=O)(OCC1C=CC(n2cc(C)c(=O)[nH]c2=O)O1)Oc1ccccc1 (centres undefined)
- CC50 [1]: ≥ 250 µM
- EC50 [3]: 12.5 µM
- EC50 [2]: 150 µM
- EC50 [4]: 12.5 µM

SMILES: CCOC(=O)C(C)OP(=O)(OCC1C=CC(n2cc(C)c(=O)[nH]c2=O)O1)Oc1ccccc1 (centres undefined)
- CC50 [1]: > 250 µM
- EC50 [3]: 28 µM
- EC50 [2]: 160 µM
- EC50 [4]: 23 µM

SMILES: COC(=O)COP(=O)(OCC1C=CC(n2cc(C)c(=O)[nH]c2=O)O1)Oc1ccccc1 (centres undefined)
- CC50 [1]: > 250 µM
- EC50 [3]: 27.5 µM
- EC50 [2]: > 250 µM
- EC50 [4]: 50 µM

SMILES: COC(=O)C(C)NP(=O)(OC[C@@H]1C=C[C@H](n2cc(C)c(=O)[nH]c2=O)O1)Oc1ccccc1 (some centres undefined)
- CC50 [1]: > 100 µM
- EC50 [2]: 0.075 µM

SMILES: Cc1cn([C@H]2C=C[C@@H](CO)O2)c(=O)[nH]c1=O [STAVUDINE]
- CC50 [5]: > 100 µM
- EC50 [6]: 0.25 µM
- EC50 [7]: > 100 µM
- EC50 [8]: 1.2 µM
